# From ChEMBL document CHEMBL1201862, “PubChem BioAssay data set” (2004)
#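 Results reflect a 48-hour exposure of cells in 96-well plates to compound at five concentrations. Abbreviation: GI50, concentration required for 50% inhibition of growth.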 The source made the active and inactive calls. No stated cut-off is given here; in the data, active = GI50 up to about 1.1 µM and inactive = higher.
# Legend:
# Assay in all cases: inhibition of tumour cell growth, NCI panel, 48 h
# 786-0 = tested on: 786-0
# CCRF-CEM = tested on: CCRF-CEM
# IGROV-1 = tested on: IGROV-1
# K562 = tested on: K562
# KM12 = tested on: KM12
# MDA-MB-231 = tested on: MDA-MB-231
# MDA-MB-435 = tested on: MDA-MB-435
# OVCAR-3 = tested on: OVCAR-3
# OVCAR-5 = tested on: OVCAR-5
# OVCAR-8 = tested on: OVCAR-8
# PC-3 = tested on: PC-3
# RPMI-8226 = tested on: RPMI-8226
# SF-295 = tested on: SF-295
# SF-539 = tested on: SF-539
# SNB-75 = tested on: SNB-75
# T47D = tested on: T47D
# UACC-257 = tested on: UACC-257
# UACC-62 = tested on: UACC-62
# HL-60 = tested on: HL-60
# SK-MEL-28 = tested on: SK-MEL-28
SMILES,GI50 (786-0),GI50 (CCRF-CEM),GI50 (IGROV-1),GI50 (K562),GI50 (KM12),GI50 (MDA-MB-231),GI50 (MDA-MB-435),GI50 (OVCAR-3),GI50 (OVCAR-5),GI50 (OVCAR-8),GI50 (PC-3),GI50 (RPMI-8226),GI50 (SF-295),GI50 (SF-539),GI50 (SNB-75),GI50 (T47D),GI50 (UACC-257),GI50 (UACC-62),GI50 (HL-60),GI50 (SK-MEL-28)
O=C1C2CCCCC2C(=O)N1n1c(Cc2ccc(Cl)cc2)n[nH]c1=O (stereo unspecified),> 100 µM (inactive),> 100 µM (inactive),> 100 µM (inactive),> 100 µM (inactive),> 100 µM (inactive),> 100 µM (inactive),> 100 µM (inactive),> 100 µM (inactive),> 100 µM (inactive),> 100 µM (inactive),> 100 µM (inactive),> 100 µM (inactive),> 100 µM (inactive),> 100 µM (inactive),> 100 µM (inactive),> 100 µM (inactive),> 100 µM (inactive),> 100 µM (inactive),–,–
COc1cc(CC2C(=O)OCC2Cc2ccc(OC)c(OC)c2)ccc1O (stereo unspecified),> 100 µM (inactive),–,> 75.3 µM (inactive),–,> 100 µM (inactive),74.3 µM (inactive),> 100 µM (inactive),> 91.8 µM (inactive),> 100 µM (inactive),> 100 µM (inactive),99.1 µM (inactive),> 100 µM (inactive),8.85 µM (inactive),> 100 µM (inactive),> 60.5 µM (inactive),28.6 µM (inactive),> 50.6 µM (inactive),> 100 µM (inactive),> 100 µM (inactive),> 100 µM (inactive)
CCOC(=O)C1=C(N2CCCC2)C(=O)C(C(=O)OCC)C1 (stereo unspecified),> 100 µM (inactive),–,> 100 µM (inactive),> 100 µM (inactive),> 100 µM (inactive),> 100 µM (inactive),> 100 µM (inactive),> 100 µM (inactive),> 100 µM (inactive),> 100 µM (inactive),> 100 µM (inactive),> 100 µM (inactive),> 100 µM (inactive),> 100 µM (inactive),> 100 µM (inactive),> 100 µM (inactive),> 100 µM (inactive),–,–,> 100 µM (inactive)
O=C(/C=C1/Nc2ccc([N+](=O)[O-])cc2N/C1=C/C(=O)c1ccc(Cl)cc1)c1ccc(Cl)cc1,> 100 µM (inactive),34.4 µM (inactive),> 100 µM (inactive),31.9 µM (inactive),> 100 µM (inactive),> 100 µM (inactive),> 100 µM (inactive),80.2 µM (inactive),> 100 µM (inactive),54.8 µM (inactive),41.4 µM (inactive),–,91 µM (inactive),> 100 µM (inactive),> 100 µM (inactive),> 100 µM (inactive),> 100 µM (inactive),49.4 µM (inactive),–,–
CSc1nc(Cl)c2c(n1)Sc1nc3ccccc3n1N=C2,28.2 µM (inactive),14.9 µM (inactive),17 µM (inactive),21.3 µM (inactive),37.8 µM (inactive),23.9 µM (inactive),29.7 µM (inactive),25.5 µM (inactive),28.9 µM (inactive),19.1 µM (inactive),22.3 µM (inactive),21.6 µM (inactive),> 100 µM (inactive),–,25.9 µM (inactive),23.5 µM (inactive),35.8 µM (inactive),29.4 µM (inactive),–,40.8 µM (inactive)
Cn1c(=O)nc2n(CCO)ccnc-2c1=O,> 100 µM (inactive),> 100 µM (inactive),> 100 µM (inactive),> 100 µM (inactive),> 100 µM (inactive),> 100 µM (inactive),> 100 µM (inactive),> 100 µM (inactive),> 100 µM (inactive),> 100 µM (inactive),> 100 µM (inactive),> 100 µM (inactive),> 100 µM (inactive),> 100 µM (inactive),> 100 µM (inactive),> 100 µM (inactive),> 100 µM (inactive),> 100 µM (inactive),–,> 100 µM (inactive)
O=C1c2ccccc2C(=O)N1n1c(Cc2ccc(Cl)cc2)n[nH]c1=O,> 100 µM (inactive),> 100 µM (inactive),> 100 µM (inactive),> 100 µM (inactive),> 100 µM (inactive),> 100 µM (inactive),> 100 µM (inactive),> 100 µM (inactive),> 100 µM (inactive),> 100 µM (inactive),> 100 µM (inactive),–,> 100 µM (inactive),> 100 µM (inactive),> 100 µM (inactive),> 100 µM (inactive),> 100 µM (inactive),> 100 µM (inactive),–,> 100 µM (inactive)
Cc1c(O)c(=O)ccn1CCc1c[nH]c2ccccc12,2.55 µM (inactive),–,–,14.4 µM (inactive),22 µM (inactive),0.718 µM (active),17.2 µM (inactive),–,14.6 µM (inactive),8.39 µM (inactive),28.4 µM (inactive),3.69 µM (inactive),3.93 µM (inactive),19.7 µM (inactive),–,22.3 µM (inactive),3.92 µM (inactive),–,19.4 µM (inactive),–
Cc1nnc2n1-c1ccccc1C(=S)N1CSCC21 (stereo unspecified),> 100 µM (inactive),> 100 µM (inactive),> 100 µM (inactive),> 100 µM (inactive),> 100 µM (inactive),> 100 µM (inactive),> 100 µM (inactive),> 100 µM (inactive),> 100 µM (inactive),> 100 µM (inactive),> 100 µM (inactive),> 100 µM (inactive),> 100 µM (inactive),–,> 100 µM (inactive),> 100 µM (inactive),> 100 µM (inactive),> 100 µM (inactive),–,> 100 µM (inactive)
OCCC/N=C1N=C(Cl)/C(=C\c2ccccc2)N\1,> 100 µM (inactive),> 100 µM (inactive),> 100 µM (inactive),> 100 µM (inactive),> 100 µM (inactive),> 100 µM (inactive),> 100 µM (inactive),–,> 100 µM (inactive),> 100 µM (inactive),–,> 100 µM (inactive),> 100 µM (inactive),> 100 µM (inactive),> 100 µM (inactive),> 100 µM (inactive),> 100 µM (inactive),–,> 100 µM (inactive),> 100 µM (inactive)
Nc1ccc2ccc(-c3ccc[nH]3)nc2n1,> 100 µM (inactive),–,> 100 µM (inactive),–,> 100 µM (inactive),> 100 µM (inactive),> 100 µM (inactive),> 100 µM (inactive),> 100 µM (inactive),> 100 µM (inactive),> 100 µM (inactive),> 100 µM (inactive),> 100 µM (inactive),> 100 µM (inactive),> 100 µM (inactive),> 100 µM (inactive),> 100 µM (inactive),–,–,> 100 µM (inactive)
CCOC(=O)c1sc2c(c1OC(=O)c1ccccc1)c(=O)n(-c1ccccc1)c(=S)n2-c1ccccc1,15.9 µM (inactive),41.8 µM (inactive),19.8 µM (inactive),28.4 µM (inactive),40.6 µM (inactive),28.5 µM (inactive),20.9 µM (inactive),24.5 µM (inactive),68.7 µM (inactive),34.3 µM (inactive),33.7 µM (inactive),40.2 µM (inactive),49.7 µM (inactive),20.6 µM (inactive),–,63.7 µM (inactive),87.3 µM (inactive),23.7 µM (inactive),36 µM (inactive),32.2 µM (inactive)
O=C(O)C/N=C(\C(=N\CC(=O)O)c1ccccc1)c1ccccc1,> 100 µM (inactive),–,–,> 100 µM (inactive),> 100 µM (inactive),> 100 µM (inactive),> 100 µM (inactive),> 100 µM (inactive),> 100 µM (inactive),> 100 µM (inactive),> 100 µM (inactive),85.7 µM (inactive),> 100 µM (inactive),–,> 100 µM (inactive),68.5 µM (inactive),> 100 µM (inactive),> 100 µM (inactive),–,> 100 µM (inactive)
CN1CCN(Cn2nc(-c3ccccc3)n(/N=C/c3ccc(-c4ccc(Cl)cc4Cl)o3)c2=S)CC1,13.1 µM (inactive),4.17 µM (inactive),8.97 µM (inactive),2.39 µM (inactive),9.73 µM (inactive),13.9 µM (inactive),11.4 µM (inactive),11.7 µM (inactive),15.2 µM (inactive),8.45 µM (inactive),8.43 µM (inactive),8.61 µM (inactive),11.4 µM (inactive),13.5 µM (inactive),–,15.5 µM (inactive),18 µM (inactive),–,4.58 µM (inactive),12.1 µM (inactive)
COc1cc2c(cc1OCCCCCN1C(=O)c3cccc4cccc(c34)C1=O)N=C[C@@H]1CCCN1C2=O,0.249 µM (active),0.0142 µM (active),0.0552 µM (active),0.114 µM (active),0.231 µM (active),0.286 µM (active),0.167 µM (active),0.184 µM (active),0.406 µM (active),0.281 µM (active),0.282 µM (active),0.119 µM (active),0.386 µM (active),0.0646 µM (active),0.34 µM (active),0.13 µM (active),0.323 µM (active),0.13 µM (active),–,0.301 µM (active)
CN1CC2=C(OC(N)=C(C#N)C2c2cccs2)/C(=C/c2cccs2)C1 (stereo unspecified),31.3 µM (inactive),5.52 µM (inactive),15.5 µM (inactive),10.3 µM (inactive),9.12 µM (inactive),> 49 µM (inactive),6.1 µM (inactive),15.8 µM (inactive),> 84.9 µM (inactive),6.44 µM (inactive),5.31 µM (inactive),4.45 µM (inactive),11.6 µM (inactive),48.8 µM (inactive),–,0.202 µM (active),9.53 µM (inactive),19.7 µM (inactive),1.81 µM (inactive),> 57.9 µM (inactive)
